Among the data in patent publication US20150175655A1 (priority 2012, published 2015) are Ki values, retold here.

A word on the Ki: it is the dissociation constant of the complex between target and ligand, obtained from inhibition or displacement.

SMILES strings stand for the structures.

In one experiment the target is T1, NS3 genotype 3a protease (UniProt Q81258).
T1 construct: Purified NS3 protease domain (amino acids 1-181) of the genotype 1b and 3a virus were generated as above; fused on or other part: N-terminal hexahistidine tag and rTEV protease cleavage site (vector p28-N6H-Tev-NS3(181)3)
T1 sequence (Q81258 1033-1663): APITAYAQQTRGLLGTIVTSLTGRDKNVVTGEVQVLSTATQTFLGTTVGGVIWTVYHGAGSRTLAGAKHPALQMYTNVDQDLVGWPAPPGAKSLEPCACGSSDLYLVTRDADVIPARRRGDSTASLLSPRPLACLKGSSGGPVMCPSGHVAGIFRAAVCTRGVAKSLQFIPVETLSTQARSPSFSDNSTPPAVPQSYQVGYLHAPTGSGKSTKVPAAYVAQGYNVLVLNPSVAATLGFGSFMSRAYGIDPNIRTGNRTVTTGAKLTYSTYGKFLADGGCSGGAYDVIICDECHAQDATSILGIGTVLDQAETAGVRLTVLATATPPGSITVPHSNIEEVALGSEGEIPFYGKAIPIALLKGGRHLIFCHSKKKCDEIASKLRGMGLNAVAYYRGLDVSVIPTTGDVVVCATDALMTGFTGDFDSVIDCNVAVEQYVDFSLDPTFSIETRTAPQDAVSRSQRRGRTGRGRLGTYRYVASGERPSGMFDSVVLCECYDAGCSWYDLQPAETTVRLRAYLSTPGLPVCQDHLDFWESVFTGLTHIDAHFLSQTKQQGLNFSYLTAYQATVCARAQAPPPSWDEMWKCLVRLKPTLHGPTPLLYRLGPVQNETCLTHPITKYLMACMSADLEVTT
The experiment is described as follows: Ki determination, NS3 protease genotype 3a (fluorogenic depsipeptide substrate). Conditions: 200 pM enzyme, 20 μM NS4A peptide, 2 μM substrate, read-out: Ki 3A. The experiment is classed as biochemical, hepatitis C virus. In a few lines: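 Refolded His-tagged NS3 protease domain (aa 1-181, genotype 3a) at 200 pM with 20 μM NS4A peptide was pre-incubated 1 h at RT with inhibitor (100 nM–5 pM, 3-fold), then 2 μM FRET depsipeptide substrate was added in HEPES/40% glycerol/10% DMSO buffer. Steady-state rates over 90-120 min (ex 340/em 490 nm) versus inhibitor concentration gave Ki.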
As to `CC[C@@H]1[C@@H]2CN(C(=O)[C@H](C(C)(C)C)NC(=O)O[C@@H]3C[C@H]3CCCCC(F)(F)c3nc4ccccc4nc3O2)[C@@H]1C(=O)N[C@]1(C(=O)NS(=O)(=O)C2CC2)C[C@H]1CC` [Example 54, (1aR,5S,8S,9S,10R,22aR)-5-tert-butyl-N-{(1R,2R)-1-[(cyclopropylsulfonyl)carbamoyl]-2-ethylcyclopropyl}-9-ethyl-18,18-difluoro-3,6-dioxo-1,1a,3,4,5,6,9,10,18,19,20,21,22,22a-tetradecahydro-8H-7,10-methanocyclopropa[18,19][1,10,3,6]dioxadiazacyclononadecino[11,12-b]quinoxaline-8-carboxamide], the Ki was 0.5 nM. On the same count and under the same terms, under `CC[C@@H]1[C@@H]2CN(C(=O)[C@H](C(C)(C)C)NC(=O)O[C@]3(C)CCC[C@H]3CCCCCc3nc4ccc(OC)cc4nc3O2)[C@@H]1C(=O)N[C@]1(C(=O)NS(=O)(=O)C2(C)CC2)C[C@H]1CC` [Example 56, (3aR,7S,10S,11S,12R,24aR)-7-tert-butyl-11-ethyl-N-[(1R,2R)-2-ethyl-1-{[(1-methylcyclopropyl)sulfonyl]carbamoyl}cyclopropyl]-16-methoxy-3a-methyl-5,8-dioxo-1,2,3,3a,5,6,7,8,11,12,20,21,22,23,24,24a-hexadecahydro-10H-9,12-methanocyclopenta[18,19][1,10,3,6]dioxadiazacyclononadecino[11,12-b]quinoxaline-10-carboxamide] stands 1 nM. On the same count and under the same terms, the same measure for `CC[C@@H]1[C@@H]2CN(C(=O)[C@H](C(C)(C)C)NC(=O)O[C@@H]3C[C@@H]4C[C@@H]4[C@H]3CCCCC(F)(F)c3nc4ccc(OC)cc4nc3O2)[C@@H]1C(=O)N[C@]1(C(=O)NS(=O)(=O)C2(C)CC2)C[C@H]1C(F)F` [Example 61, (1aS,2aR,6S,9S,10S,11R,23aR,23bS)-6-tert-butyl-N-[(1R,2R)-2-(difluoromethyl)-1-{[(1-methylcyclopropyl)sulfonyl]carbamoyl}cyclopropyl]-10-ethyl-19,19-difluoro-15-methoxy-4,7-dioxo-1a,2,2a,4,5,6,7,10,11,19,20,21,22,23,23a,23b-hexadecahydro-1H,9H-8,11-methanocyclopropa[4′,5′]cyclopenta[1′,2′:18,19][1,10,3,6]dioxadiazacyclononade cino[11,12-b]quinoxaline-9-carboxamide]: 0.09 nM; for `CC[C@@H]1[C@@H]2CN(C(=O)[C@H](C(C)(C)C)NC(=O)O[C@@]3(C)C[C@@H]3CCCCC(F)(F)c3nc4ccc(OC)cc4nc3O2)[C@@H]1C(=O)N[C@]1(C(=O)NS(=O)(=O)C2(C)CC2)C[C@H]1C(F)F` [Example 64, (1aS,5S,8S,9S,10R,22aS)-5-tert-butyl-N-[(1R,2R)-2-(difluoromethyl)-1-{[(1-methylcyclopropyl)sulfonyl]carbamoyl}cyclopropyl]-9-ethyl-18,18-difluoro-14-methoxy-1a-methyl-3,6-dioxo-1,1a,3,4,5,6,9,10,18,19,20,21,22,22a-tetradecahydro-8H-7,10-methanocyclopropa[18,19][1,10,3,6]dioxadiazacyclononadecino[11,12-b]quinoxaline-8-carboxamide]: 1.2 nM. Same read-out and setting: under `CC[C@@H]1[C@@H]2CN(C(=O)[C@H](C(C)(C)C)NC(=O)O[C@@H]3C[C@H]3CCCCCc3nc4ccc(OC)cc4nc3O2)[C@@H]1C(=O)N[C@]1(C(=O)NS(=O)(=O)C2(C)CC2)C[C@H]1CC(F)F` [Example 67, (1aR,5S,8S,9S,10R,22aR)-5-tert-butyl-N-[(1R,2S)-2-(2,2-difluoroethyl)-1-{[(1-methylcyclopropyl)sulfonyl]carbamoyl}cyclopropyl]-9-ethyl-14-methoxy-3,6-dioxo-1,1a,3,4,5,6,9,10,18,19,20,21,22,22a-tetradecahydro-8H-7,10-methanocyclopropa[18,19][1,10,3,6]dioxadiazacyclononadecino[11,12-b]quinoxaline-8-carboxamide] stands 0.32 nM; under `COc1ccc2nc3c(nc2c1)O[C@H]1CN(C(=O)[C@H](C(C)(C)C)NC(=O)O[C@H]2CC4CC(C4)[C@@H]2CCCCC3)[C@H](C(=O)N[C@]2(C(=O)NS(=O)(=O)C3CC3)C[C@H]2C(F)F)[C@@H]1C` [Example 72, (4aS,8S,11S,12S,13R,25aS)-8-tert-butyl-N-[(1R,2R)-1-[(cyclopropylsulfonyl)carbamoyl]-2-(difluoromethyl)cyclopropyl]-17-methoxy-12-methyl-6,9-dioxo-2,3,4,4a,6,7,8,9,12,13,21,22,23,24,25,25a-hexadecahydro-1H,11H-1,3:10,13-dimethanoquinoxalino[2,3-k][1,10,3,6]benzodioxadiazacyclononadecine-11-carboxamide], 4.1 nM. For the compound `CC[C@@H]1[C@@H]2CN(C(=O)[C@H](C(C)(C)C)NC(=O)O[C@@H]3C[C@H]3CCCCCc3nc4ccc(OC)cc4nc3O2)[C@@H]1C(=O)N[C@]1(C(=O)NS(=O)(=O)C2(C)CC2)C[C@H]1C` [Example 73, (1aR,5S,8S,9S,10R,22aR)-5-tert-butyl-9-ethyl-14-methoxy-N-[(1R,2R)-2-methyl-1-{[(1-methylcyclopropyl)sulfonyl]carbamoyl}cyclopropyl]-3,6-dioxo-1,1a,3,4,5,6,9,10,18,19,20,21,22,22a-tetradecahydro-8H-7,10-methanocyclopropa[18,19][1,10,3,6]dioxadiazacyclononadecino[11,12-b]quinoxaline-8-carboxamide], the Ki was 0.82 nM. In the case of `CC[C@@H]1[C@@H]2CN(C(=O)[C@H](C(C)(C)C)NC(=O)O[C@@H]3C[C@H]3CCCCCc3nc4ccc(OC)cc4nc3O2)[C@@H]1C(=O)N[C@]1(C(=O)NS(=O)(=O)C2(F)CC2)C[C@H]1C(F)F` [Example 74, (1aR,5S,8S,9S,10R,22aR)-5-tert-butyl-N-[(1R,2R)-2-(difluoromethyl)-1-{[(1-fluorocyclopropyl)sulfonyl]carbamoyl}cyclopropyl]-9-ethyl-14-methoxy-3,6-dioxo-1,1a,3,4,5,6,9,10,18,19,20,21,22,22a-tetradecahydro-8H-7,10-methanocyclopropa[18,19][1,10,3,6]dioxadiazacyclononadecino[11,12-b]quinoxaline-8-carboxamide], the Ki stood at 0.12 nM.

The same experiment, now with this note: read-out: Ki 3A, 200 pM enzyme, 20 μM NS4A peptide, 2 μM substrate.
Consider `COc1ccc2nc3c(nc2c1)O[C@H]1CN(C(=O)[C@H](C(C)(C)C)NC(=O)O[C@@H]2C[C@@H]4C[C@@H]4[C@H]2CCCCC3)[C@H](C(=O)N[C@]2(C(=O)NS(=O)(=O)C3CC3)C[C@H]2CC(F)F)[C@@H]1C` [Example 57, (1aS,2aR,6S,9S,10S,11R,23aR,23bS)-6-tert-butyl-N-[(1R,2S)-1-[(cyclopropylsulfonyl)carbamoyl]-2-(2,2-difluoroethyl)cyclopropyl]-15-methoxy-10-methyl-4,7-dioxo-1a,2,2a,4,5,6,7,10,11,19,20,21,22,23,23a,23b-hexadecahydro-1H,9H-8,11-methanocyclopropa[4′,5′]cyclopenta[1′,2′:18,19][1,10,3,6]dioxadiazacyclononade cino[11,12-b]quinoxaline-9-carboxamide], for which the Ki was found to be 0.28 nM.

In the case of `COc1ccc2nc3c(nc2c1)O[C@H]1CN(C(=O)[C@H](C(C)(C)C)NC(=O)O[C@@H]2C[C@@H]4C[C@@H]4[C@H]2CCCCC3)[C@H](C(=O)N[C@]2(C(=O)NS(=O)(=O)C3(C)CC3)C[C@H]2CC(F)F)[C@@H]1C` [Example 58, (1aS,2aR,6S,9S,10S,11R,23aR,23bS)-6-tert-butyl-N-[(1R,2S)-2-(2,2-difluoroethyl)-1-{[(1-methylcyclopropyl)sulfonyl]carbamoyl}cyclopropyl]-15-methoxy-10-methyl-4,7-dioxo-1a,2,2a,4,5,6,7,10,11,19,20,21,22,23,23a,23b-hexadecahydro-1H,9H-8,11-methanocyclopropa[4′,5′]cyclopenta[1′,2′:18,19][1,10,3,6]dioxadiazacyclononade cino[11,12-b]quinoxaline-9-carboxamide], the Ki turned out to be 0.17 nM.

On to `CCC[C@@H]1[C@@H]2CN(C(=O)[C@H](C(C)(C)C)NC(=O)O[C@@H]3C[C@H]3CCCCC(F)(F)c3nc4ccc(OC)cc4nc3O2)[C@@H]1C(=O)N[C@]1(C(=O)NS(=O)(=O)C2(C)CC2)C[C@H]1C(F)F` [Example 65, (1aR,5S,8S,9S,10R,22aR)-5-tert-butyl-N-[(1R,2R)-2-(difluoromethyl)-1-{[(1-methylcyclopropyl)sulfonyl]carbamoyl}cyclopropyl]-18,18-difluoro-14-methoxy-3,6-dioxo-9-propyl-1,1a,3,4,5,6,9,10,18,19,20,21,22,22a-tetradecahydro-8H-7,10-methanocyclopropa[18,19][1,10,3,6]dioxadiazacyclononadecino[11,12-b]quinoxaline-8-carboxamide], for which the Ki turned out to be 0.07 nM.
